C50 data for 4 compounds are collected here from paper PMC12384515 (2023).

Assay in all cases: fluorescent intercalator displacement
What all share (conditions): ethidium bromide (5 μM) displaced; DNA 10 μM/bp; per base

Experiment [1] concerns A5T5 (DNA, duplex) GGGAAAAATTTTTCCC
Experiment [2] relates to (AT)5 (DNA, duplex) GGGATATATATATCCC
For experiment [3], the system named is G5C5 (DNA, duplex) AAAGGGGGCCCCCTTT

Consider `CN(C)c1ccc([C+](c2ccc(N(C)C)cc2)c2ccc3cc(N(C)C)ccc3c2)cc1`, for which the C50 in experiment [1] was 0.52 ± 0.01 µM; in experiment [2], 0.32 ± 0.02 µM; in experiment [3], 0.88 ± 0.01 µM.
On to `CN(C)c1ccc([C+](c2ccc(N(C)C)c(-c3ccccc3)c2)c2ccc(N(C)C)c(-c3ccccc3)c2)cc1-c1ccccc1`, for which the C50 in experiment [1] amounted to 3.13 ± 0.01 µM; in experiment [3] it was 3.36 ± 0.07 µM.
Regarding `CN(C)c1ccc([C+](c2ccc(N(C)C)cc2)c2ccc(N(C)C)c(-c3ccccc3)c2)cc1`, the C50 in experiment [2] is 2.75 ± 0.21 µM.
`CC1=CC(=[N+](C)C)C=CC1=C(c1ccc(N(C)C)cc1C)c1ccc(N(C)C)cc1C`: the C50 in experiment [1] turned out to be 2.40 ± 0.02 µM; in experiment [2], 2.30 ± 0.03 µM; in experiment [3], 7.21 ± 0.63 µM.
